Values quoted from earlier work in PMC4027949 (ACS Chemical Biology, 2014).

Key:
PDGFRa = PDGFRa (Homo sapiens, UniProt P16234); conditions: read-out: IC50 PDGFRa; Ibrutinib comparison values
P38 = conditions: read-out: IC50 P38; Ibrutinib comparison values
PI3K = conditions: read-out: IC50 PI3K; Ibrutinib comparison values

Chain of PDGFRa (P16234 24-1089, species assumed): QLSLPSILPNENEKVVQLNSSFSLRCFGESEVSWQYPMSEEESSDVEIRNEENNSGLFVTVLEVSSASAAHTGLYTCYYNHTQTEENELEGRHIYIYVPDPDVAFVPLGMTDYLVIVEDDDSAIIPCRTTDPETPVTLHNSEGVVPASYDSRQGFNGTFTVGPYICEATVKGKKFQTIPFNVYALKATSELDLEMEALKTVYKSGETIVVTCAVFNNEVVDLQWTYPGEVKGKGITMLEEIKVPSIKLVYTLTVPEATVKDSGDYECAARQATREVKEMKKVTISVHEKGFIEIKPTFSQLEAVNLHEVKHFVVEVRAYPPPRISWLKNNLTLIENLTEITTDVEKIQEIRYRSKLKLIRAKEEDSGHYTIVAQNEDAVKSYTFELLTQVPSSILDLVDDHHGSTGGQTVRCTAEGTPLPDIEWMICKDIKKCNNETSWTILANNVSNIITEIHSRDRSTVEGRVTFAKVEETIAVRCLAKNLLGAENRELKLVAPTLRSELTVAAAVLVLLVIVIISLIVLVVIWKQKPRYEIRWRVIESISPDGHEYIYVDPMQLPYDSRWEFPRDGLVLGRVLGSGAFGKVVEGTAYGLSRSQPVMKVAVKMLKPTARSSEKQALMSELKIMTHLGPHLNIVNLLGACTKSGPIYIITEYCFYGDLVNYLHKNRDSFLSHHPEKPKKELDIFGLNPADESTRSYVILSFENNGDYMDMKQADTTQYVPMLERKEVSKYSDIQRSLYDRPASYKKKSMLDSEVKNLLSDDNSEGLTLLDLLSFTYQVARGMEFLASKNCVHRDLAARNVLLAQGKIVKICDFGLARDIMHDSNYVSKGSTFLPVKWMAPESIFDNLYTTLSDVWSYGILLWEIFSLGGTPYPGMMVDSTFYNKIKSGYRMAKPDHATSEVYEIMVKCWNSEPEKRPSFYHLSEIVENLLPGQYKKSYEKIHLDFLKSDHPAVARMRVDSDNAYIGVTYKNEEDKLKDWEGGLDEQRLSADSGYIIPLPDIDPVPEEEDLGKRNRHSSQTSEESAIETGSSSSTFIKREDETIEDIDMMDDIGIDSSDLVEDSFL

- IC50 (PDGFRa): 0.718 µM
- IC50 (P38): > 10 µM
- IC50 (PI3K): > 10 µM
Compound: C=CC(=O)N1CCC[C@@H](n2nc(-c3ccc(Oc4ccccc4)cc3)c3c(N)ncnc32)C1 [Ibrutinib]
